According to US5162361A, “Method of treating diseases associated with elevated levels of interleukin 1” (priority 1990, dated 1992):

System: alveolar macrophage
Assay: Alveolar macrophage viability following 24 hour exposure
Assay type: cell-based
Conditions: concentrations ≤10^-5 M; normal rat macrophages
Experimental: Dose response studies were performed to determine the molar concentration at which pentamidine reduced viability in normal rat macrophages. […] This blockage was shown using an enzyme linked immunosorbant assay with specific antibody to IL-1β.
Alveolar macrophage viability was assessed by incubating the cells in RPMI 1640 media with 10% fetal calf serum in the presence of pentamidine at the indicated concentrations. Twenty-four hours later the cells were analyzed for viability using ethidium bromide staining. A minimum of 10,000 cells were analyzed by flow cytometry on a FACSCAN analyzer.
These observations have been confirmed using microscopic analysis via trypan blue dye exclusion.

Structure (SMILES): N=C(N)c1ccc(OCCCCCOc2ccc(C(=N)N)cc2)cc1 [Pentamidine, 1,5-bis(4-amidinophenoxy)pentane]
- Loss in cell viability: No significant loss in cell viability
